Reference: patent US20260165948A1, “A COMPOSITION FOR SKIN REGENERATION COMPRISING A CULTURE MEDIUM OF TONSIL-DERIVED MESENCHYMAL STEM CELLS, THE ANTIOXIDANT EFFECT OF WHICH IS ENHANCED BY N-ACETYLCYSTEINE (NAC)” (priority 2023, published 2026)

Legend:
[1] = system: tonsil-derived human MSCs; assay: Determination of NAC pretreatment concentration (cell viability); details: NAC 10 mM, pretreatment for 24 hours; FIG. 1
Procedure: In order to determine the concentration of NAC for pretreatment of tonsil-derived human MSCs, the tonsil-derived human MSCs were pretreated with NAC prepared in Example 1 at concentrations of 2, 4, 6, 8, 10, 15, and 100 mM for 24 hours, and then cell viability was evaluated.

[2] = system: tonsil-derived human MSCs (hMSC-T, passage 6); assay: Cell viability upon NAC treatment (WST, absorbance at 450 nm) with PYBR challenge; format: cell-based; details: NAC pretreatment 10 mM and 20 mM for 24 hours, then PYBR 5, 10, 20 μg/mL for 24 hours; FIG. 3
Procedure: In order to evaluate cell viability upon NAC treatment, tonsil-derived human MSCs (hMSC-T, passage 6) were seeded in a culture medium at a density of 1×10^3 cells/well. On the following day, NAC was treated at concentrations of 10 mM and 20 mM for 24 hours. Thereafter, the cells were washed with PBS and the medium was replaced, followed by treatment with PYBR at concentrations of 5, 10, and 20 μg/mL. After 24 hours, the cells were washed three times with PBS and transferred to fresh medium (100 μL) containing 10 μL of WST solution, and incubated at 37° C. for 2 hours in the dark. Absorbance at 450 nm was then measured to evaluate cell viability (FIG. 2). A group not treated with NAC was used as a positive control.

[3] = system: tonsil-derived human MSCs (hMSC-T, passage 6); assay: Antioxidant activity (ROS assay) with PYBR challenge; format: cell-based; details: NAC pretreatment 10 mM and 20 mM for 24 hours, then PYBR 5, 10, 20 μg/mL for 24 hours; FIG. 5
Procedure: In order to evaluate antioxidant activity upon NAC treatment, tonsil-derived human MSCs (hMSC-T, passage 6) were seeded in a culture medium at a density of 1×10^4 cells/well. On the following day, NAC was treated at concentrations of 10 mM and 20 mM for 24 hours. Thereafter, the cells were washed with PBS and the medium was replaced, followed by treatment with PYBR at concentrations of 5, 10, and 20 μg/mL. After 24 hours, the cells were washed three times with PBS and incubated in 100 μL of ROS working solution at 37° C. for 30 minutes in the dark. Absorbance was then measured at 488/525 nm (FIG. 4). A group not treated with NAC was used as a positive control.

## CC(=O)NC(CS)C(=O)O (stereo not drawn) [NAC, 2-acetamido-3-sulfanylpropanoic acid]
[1]
  cytotoxicity (cell viability): no cytotoxicity was observed
[2]
  cell viability after PYBR treatment: significantly restored cell viability
[3]
  ROS levels after PYBR treatment: significantly reduced ROS levels
